In patent publication US20020137929A1, “1 - (3-heterocyclylphenyl) isothiourea, -isourea, -guanidine and -amidine herbicidal agents” (Intellectual Property Department, BASF Aktiengesellschaft, priority 1998, published 2002):

Key:
MOOVA (Monochoria) = experiment: Preemergence weed control under flooded paddy conditions; format: in vivo, Monochoria vaginalis; settings: rated 3-4 weeks after treatment
Method in brief: (§1)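 Using flooded silt loam (water 1.5 to 3 cm deep), seeds sown in the top 0.5 cm were exposed preemergence to compound pipetted into the flood at about 0.0313 to 0.500 kg/ha. Effects were scored 0-9 by eye three to four weeks later.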

CYPIR (Rice Flatsedge) = experiment: as above; format: in vivo, Cyperus iria; settings: rated 3-4 weeks after treatment
Method in brief: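 Silt loam, seeds in top 0.5 cm; flood held 1.5-3 cm; test cpd as acetone/water 50/50 into flood water, ~0.0313-0.500 kg/ha a.i.; greenhouse 3-4 wk; visual 0-9 score vs control.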

ABUTH (Velvetleaf) [1] = experiment: Preemergence herbicidal evaluation; format: in vivo, Abutilon theophrasti; settings: rated 4-5 weeks after treatment
Method in brief: (§2)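 Seeds were mixed with potting soil and planted on about one inch of soil, then sprayed with test compound in aqueous acetone at about 0.0156 to 0.500 kg per hectare. Plants grew under standard greenhouse care and were visually rated 0-9 against untreated controls 4-5 weeks post-treatment.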

SETVI (Foxtail, Green) = experiment: Postemergence herbicidal evaluation; format: in vivo, Setaria viridis; settings: postemergence
Method in brief: (§3)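 Young plants, roughly two weeks from seeding, receive the active ingredient as a sprayed dispersion (acetone/water 50/50, 0.5% TWEEN 20) at 40 psi. Doses span about 0.0156 to 0.500 kg/ha. A visual score from 0 to 9 compares treated with control plants four to five weeks on.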

ABUTH (Velvetleaf) [2] = experiment: Postemergence herbicidal evaluation; format: in vivo, Abutilon theophrasti; settings: postemergence
Method in brief: as §3

[3] = tested on: SAGPY (Arrowhead (Pygmaea)); experiment: Preemergence weed control under flooded paddy conditions; format: in vivo, Sagittaria pygmaea; settings: rated 3-4 weeks after treatment
Method in brief: as §1

[4] = tested on: IPOHE (Morningglory, Ivyleaf); experiment: Postemergence herbicidal evaluation; format: in vivo, Ipomoea hederacea; settings: postemergence
Method in brief: as §3

ORYSAT (Rice, Tebonnet) [5] = experiment: Postemergence herbicidal evaluation; format: in vivo, Oryza sativa, (L.) Tebonnet; settings: postemergence
Method in brief: as §3

GALAP (Galium) = experiment: Postemergence herbicidal evaluation; format: in vivo, Galium aparine; settings: postemergence
Method in brief: as §3

[6] = tested on: TRZAWR (Wheat, Winter, cv Riband); experiment: Preemergence herbicidal evaluation; format: in vivo, Triticum aestivum; settings: rated 4-5 weeks after treatment
Method in brief: as §2

AMBEL (Ragweed, Common) = experiment: Postemergence herbicidal evaluation; format: in vivo, Ambrosia artemisifolia; settings: postemergence
Method in brief: as §3

[7] = tested on: GLXMAW (Soybean, Williams); experiment: Preemergence herbicidal evaluation; format: in vivo, Glycine max, (L.) Merr. cv Williams; settings: rated 4-5 weeks after treatment
Method in brief: as §2

[8] = tested on: GLXMAW (Soybean, Williams); experiment: Postemergence herbicidal evaluation; format: in vivo, Glycine max, (L.) Merr. cv Williams; settings: postemergence
Method in brief: as §3

ECHCG (Barnyardgrass) = experiment: Postemergence herbicidal evaluation; format: in vivo, Echinochloa crus-galli; settings: postemergence
Method in brief: as §3

ORYSAT (Rice, Tebonnet) [9] = experiment: Preemergence herbicidal evaluation; format: in vivo, Oryza sativa, (L.) Tebonnet; settings: rated 4-5 weeks after treatment
Method in brief: as §2

CASOB (Sicklepod) = experiment: Preemergence herbicidal evaluation; format: in vivo, Cassia obtusifolia; settings: rated 4-5 weeks after treatment
Method in brief: as §2

[10] = tested on: CHEAL (Lambsquarters, Common); experiment: Postemergence herbicidal evaluation; format: in vivo, Chenopodium album; settings: postemergence
Method in brief: as §3

In the case of CCOC(=O)CN1C(=O)C(CC(=O)NS(=O)(=O)C(C)C)SC1=Nc1cc(-n2c(=O)cc(C(F)(F)F)n(C)c2=O)c(F)cc1Cl (stereo not shown) [Compound 117, Ethyl 2-{{2-chloro-5-[3,6-dihydro-3-methyl-2,6-dioxo-4-(trifluoromethyl)-1(2H)-pyrimidinyl]-4-fluorophenyl}imino}-5-{[(isopropylsulfonyl)-carbamoyl]methyl}-4-oxo-3-thiazolidineacetate], the “herbicidal effect rating, MOOVA” value (MOOVA (Monochoria); 0.0313 kg/ha) is reported as 6.0, the “herbicidal effect rating, MOOVA” value (MOOVA (Monochoria); 0.0625 kg/ha) is reported as 7.0 and the “herbicidal effect rating, MOOVA” value (MOOVA (Monochoria); 0.1250 kg/ha) is reported as 9.0. For the same compound, the “herbicidal effect rating, MOOVA” value (MOOVA (Monochoria); 0.2500 kg/ha) was 9.0, the “herbicidal effect rating, CYPIR” value (CYPIR (Rice Flatsedge); 0.0313 kg/ha) was 0.0 and the “herbicidal effect rating, CYPIR” value (CYPIR (Rice Flatsedge); 0.0625 kg/ha) was 2.0. The “herbicidal effect rating, CYPIR” value (CYPIR (Rice Flatsedge); 0.1250 kg/ha) was 5.0, the “herbicidal effect rating, CYPIR” value (CYPIR (Rice Flatsedge); 0.2500 kg/ha) was 6.0 and the “Preemergence herbicidal rating ABUTH” value (ABUTH (Velvetleaf) [1]; rate 0.0156 kg/ha) was 0.0. For the same compound, the “Preemergence herbicidal rating ABUTH” value (ABUTH (Velvetleaf) [1]; rate 0.0313 kg/ha) was 0.0, the “Preemergence herbicidal rating ABUTH” value (ABUTH (Velvetleaf) [1]; rate 0.0625 kg/ha) was 0.0 and the “Preemergence herbicidal rating ABUTH” value (ABUTH (Velvetleaf) [1]; rate 0.1250 kg/ha) was 1.0. For the same compound, the “Preemergence herbicidal rating ABUTH” value (ABUTH (Velvetleaf) [1]; rate 0.2500 kg/ha) was 9.0, the “herbicidal rating SETVI” value (SETVI (Foxtail, Green); rate 0.0158 kg/ha) was 1.0 and the “herbicidal rating SETVI” value (SETVI (Foxtail, Green); rate 0.0315 kg/ha) was 2.0. For the same compound, the “herbicidal rating SETVI” value (SETVI (Foxtail, Green); rate 0.0630 kg/ha) was 2.0, the “herbicidal rating ABUTH” value (ABUTH (Velvetleaf) [2]; rate 0.0158 kg/ha) was 9.0 and the “herbicidal rating ABUTH” value (ABUTH (Velvetleaf) [2]; rate 0.0315 kg/ha) was 9.0. The “herbicidal rating ABUTH” value (ABUTH (Velvetleaf) [2]; rate 0.0630 kg/ha) was 9.0, the “herbicidal effect rating, SAGPY” value ([3]; 0.0313 kg/ha) was 0.0 and the “herbicidal effect rating, SAGPY” value ([3]; 0.0625 kg/ha) was 0.0. The “herbicidal effect rating, SAGPY” value ([3]; 0.1250 kg/ha) was 0.0, the “herbicidal effect rating, SAGPY” value ([3]; 0.2500 kg/ha) was 0.0 and the “herbicidal rating IPOHE” value ([4]; rate 0.0158 kg/ha) was 9.0. For the same compound, the “herbicidal rating IPOHE” value ([4]; rate 0.0315 kg/ha) was 9.0, the “herbicidal rating IPOHE” value ([4]; rate 0.0630 kg/ha) was 9.0 and the “herbicidal rating ORYSAT” value (ORYSAT (Rice, Tebonnet) [5]; rate 0.0158 kg/ha) was 2.0. The “herbicidal rating ORYSAT” value (ORYSAT (Rice, Tebonnet) [5]; rate 0.0315 kg/ha) was 2.0, the “herbicidal rating ORYSAT” value (ORYSAT (Rice, Tebonnet) [5]; rate 0.0630 kg/ha) was 3.0 and the “herbicidal rating GALAP” value (GALAP (Galium); rate 0.0158 kg/ha) was 1.0. The “herbicidal rating GALAP” value (GALAP (Galium); rate 0.0315 kg/ha) was 1.0, the “herbicidal rating GALAP” value (GALAP (Galium); rate 0.0630 kg/ha) was 1.0 and the “Preemergence herbicidal rating TRZAWR” value ([6]; rate 0.0156 kg/ha) was 0.0. The “Preemergence herbicidal rating TRZAWR” value ([6]; rate 0.0313 kg/ha) was 0.0, the “Preemergence herbicidal rating TRZAWR” value ([6]; rate 0.0625 kg/ha) was 0.0 and the “Preemergence herbicidal rating TRZAWR” value ([6]; rate 0.1250 kg/ha) was 0.0. For the same compound, the “Preemergence herbicidal rating TRZAWR” value ([6]; rate 0.2500 kg/ha) was 0.0, the “herbicidal rating AMBEL” value (AMBEL (Ragweed, Common); rate 0.0158 kg/ha) was 4.0 and the “herbicidal rating AMBEL” value (AMBEL (Ragweed, Common); rate 0.0315 kg/ha) was 5.0. For the same compound, the “herbicidal rating AMBEL” value (AMBEL (Ragweed, Common); rate 0.0630 kg/ha) was 7.0, the “Preemergence herbicidal rating GLXMAW” value ([7]; rate 0.0156 kg/ha) was 0.0 and the “Preemergence herbicidal rating GLXMAW” value ([7]; rate 0.0313 kg/ha) was 0.0. The “Preemergence herbicidal rating GLXMAW” value ([7]; rate 0.0625 kg/ha) was 1.0, the “Preemergence herbicidal rating GLXMAW” value ([7]; rate 0.1250 kg/ha) was 1.0 and the “Preemergence herbicidal rating GLXMAW” value ([7]; rate 0.2500 kg/ha) was 1.0. The “herbicidal rating GLXMAW” value ([8]; rate 0.0158 kg/ha) was 5.0, the “herbicidal rating GLXMAW” value ([8]; rate 0.0315 kg/ha) was 5.0 and the “herbicidal rating GLXMAW” value ([8]; rate 0.0630 kg/ha) was 6.0. The “herbicidal rating ECHCG” value (ECHCG (Barnyardgrass); rate 0.0158 kg/ha) was 1.0, the “herbicidal rating ECHCG” value (ECHCG (Barnyardgrass); rate 0.0315 kg/ha) was 2.0 and the “herbicidal rating ECHCG” value (ECHCG (Barnyardgrass); rate 0.0630 kg/ha) was 1.0. For the same compound, the “Preemergence herbicidal rating ORYSAT” value (ORYSAT (Rice, Tebonnet) [9]; rate 0.0156 kg/ha) was 0.0, the “Preemergence herbicidal rating ORYSAT” value (ORYSAT (Rice, Tebonnet) [9]; rate 0.0313 kg/ha) was 0.0 and the “Preemergence herbicidal rating ORYSAT” value (ORYSAT (Rice, Tebonnet) [9]; rate 0.0625 kg/ha) was 0.0. The “Preemergence herbicidal rating ORYSAT” value (ORYSAT (Rice, Tebonnet) [9]; rate 0.1250 kg/ha) was 0.0, the “Preemergence herbicidal rating ORYSAT” value (ORYSAT (Rice, Tebonnet) [9]; rate 0.2500 kg/ha) was 0.0 and the “Preemergence herbicidal rating CASOB” value (CASOB (Sicklepod); rate 0.0156 kg/ha) was 0.0. The “Preemergence herbicidal rating CASOB” value (CASOB (Sicklepod); rate 0.0313 kg/ha) was 0.0, the “Preemergence herbicidal rating CASOB” value (CASOB (Sicklepod); rate 0.0625 kg/ha) was 0.0 and the “Preemergence herbicidal rating CASOB” value (CASOB (Sicklepod); rate 0.1250 kg/ha) was 1.0. The “Preemergence herbicidal rating CASOB” value (CASOB (Sicklepod); rate 0.2500 kg/ha) was 1.0, the “herbicidal rating CHEAL” value ([10]; rate 0.0158 kg/ha) was 0.0 and the “herbicidal rating CHEAL” value ([10]; rate 0.0315 kg/ha) was 4.0. The “herbicidal rating CHEAL” value ([10]; rate 0.0630 kg/ha) was 9.0.
